Reference: paper PMC11898701, “Evaluating Therapeutic Efficacy of the Vascular Disrupting Agent OXi8007 Against Kidney Cancer in Mice” (Cancers, 2025)
Where two headings read alike, the source gives them in different places. Marks after values point to notes of the source that are not given here.

Tests used:
[1] = Blood pressure assessment (CODA system); type: in vivo, mouse
Protocol: Blood pressure was measured using a CODA system (Kent Scientific, Torrington, CT, USA) on 5 adult male BALB/c mice. Mice were anesthetized with 2% isoflurane in oxygen at 1 dm^3/min and placed on the CODA IR heating pad with a feedback rectal temperature probe and nosecone to maintain anesthesia. An occlusion cuff and VPR cuff were placed on the tail. The baseline measurement was recorded over 30 min, then OXi8007 (250 mg/kg or 325 mg/kg) was administered IP and the blood pressure measurement resumed for 45 min. As positive and negative controls, hydralazine (1 mg/kg) or saline, respectively, were injected IP.

[2] = Pharmacokinetic study in Renca-luc tumor-bearing BALB/c mice; type: in vivo, mouse; details: for Tmax / half-life / Cmax: ip; for Cmax: read-out: Cmax
Protocol: Plasma and tissues were harvested at various time points (20 min to 16 h) from Renca-luc tumor-bearing BALB/c male mice following the administration of OXi8007 IP. Mice treated with 250 mg/kg were sacrificed at 20 min (n = 3), 1 h (n = 4), 2 h (n = 4), 4 h (n = 4), 8 h (n = 4), and 16 h (n = 4). Mice were anesthetized, exsanguinated, the tissues were blotted, and then they were weighed and frozen in liquid nitrogen. Homogenized plasma and tissue samples were extracted with acetonitrile with a bead mill; internal standard (CA4 or tri-labeled ^13C-OXi8006) was added to each sample to reach a final concentration of 10 ppb. Samples were centrifuged twice to remove precipitated proteins (16,260× g for 10 min at 4 °C). Clear supernatant was transferred into MS vials, and formic acid was added to a final concentration of 0.1% for LC-MS analysis. […] Mobile phase A consisted of 0.1% v/v formic acid in water, and mobile phase B was acetonitrile, which was mixed by the binary pump with an elution gradient at a flow rate of 0.6 mL/min. Data were analyzed using Xcalibur 4.6 software based on exact masses, and Phoenix WinNonlin 8.5.0 software was used to determine the pharmacokinetic parameters based on a non-compartmental model.

[3] = system: orthotopic XP258 human tumor xenografts; test: Acute response of XP258 tumors by MSOT; type: in vivo, mouse; details: XP258, four hours post-treatment, 250 mg/kg IP
Protocol: For the multispectral optoacoustic tomography (MSOT), an iThera InVision 256-TF device with seven wavelengths (700, 730, 760, 780, 800, 820, and 875 nm) was used. Mice were shaved and depilated around the tumor region. The anesthetized mouse (1–2% isoflurane) was placed in the imaging chamber (34 °C) for 10 min to reach thermal equilibrium before imaging a single slice showing the largest cross-section of the tumor. An oxygen gas breathing challenge was performed to assess the dynamic changes in blood oxygenation. Images were generated using ViewMSOT version 4.2 with a back projection-based reconstruction algorithm followed by built-in fluence correction. Oxy- and deoxyhemoglobin were resolved using a linear regression approach.
Oxygen saturation (sO2) maps were analyzed using MATLAB 2022b (MathWorks Inc., Natick, MA, USA), and the images were visualized with Fiji. The percentage of hemoglobin saturation (sO2) was calculated as follows:[…]
Blank pixels represent areas lacking a detectable hemoglobin signal. The average sO2^MSOT was calculated pixelwise in each ROI for the air and oxygen breathing periods as sO2^MSOT (Air) and sO2^MSOT (O2), and the response to the oxygen gas challenge was as follows:∆sO2 = sO2 (O2) − sO2 (Air)(2)

Renca cells = test: Wound (scratch) assay; type: cell-based, mouse; details: ≥ 2.5 µM, over 48 h
Protocol: Renca cells were plated at a seeding density of approximately 3 × 10^5 cells per well in a 6-well plate and allowed to reach confluency before treatment. A scratch was made with a sterile 10 µL pipette tip in each well before removing the medium and any detached cells. […] Hoechst 33342 was added to each well at a final concentration of 1 µg/mL and incubated for 15 min at 37 °C to stain the cell nuclei. Gen5 version 3.14 software was used for cellular and statistical analysis of the wound closure data.

[4] = male, BALB/c, mouse, in vivo, 250 mg/kg, brain, after OXi8007 250 mg/kg IP
[5] = male, BALB/c, mouse, in vivo, 250 mg/kg, heart, after OXi8007 250 mg/kg IP
[6] = male, BALB/c, mouse, in vivo, 250 mg/kg, left kidney, after OXi8007 250 mg/kg IP
[7] = male, BALB/c, mouse, in vivo, 250 mg/kg, liver, after OXi8007 250 mg/kg IP
[8] = male, BALB/c, mouse, in vivo, 250 mg/kg, lungs, after OXi8007 250 mg/kg IP
[9] = male, BALB/c, mouse, in vivo, 250 mg/kg, plasma, after OXi8007 250 mg/kg IP
[10] = male, BALB/c, mouse, in vivo, 250 mg/kg, spleen, after OXi8007 250 mg/kg IP
[11] = male, BALB/c, mouse, in vivo, 250 mg/kg, tumor and right kidney, after OXi8007 250 mg/kg IP

**Q.** For COc1ccc2c(C(=O)c3cc(OC)c(OC)c(OC)c3)c(-c3ccc(OC)c(OP(=O)(O)O)c3)[nH]c2c1 [OXi8007], which “Duration of temporary elevation in blood pressure” value ([1]; 250 mg/kg IP) is on record?
**A.** Its value is “less than 20 min”.

**Q.** What about the “Diastolic blood pressure after administration” value ([1]; 250 mg/kg IP, 5 male BALB/c mice, baseline 84 ± 2) of the same compound?
**A.** Its value is 82 mmHg.

**Q.** And the “Mean blood pressure after administration” value ([1]; 250 mg/kg IP, 5 male BALB/c mice, baseline 94 ± 2)?
**A.** Its value is 94 mmHg.

**Q.** And the “Systolic blood pressure after administration” value ([1]; 250 mg/kg IP, 5 male BALB/c mice, baseline 115 ± 3)?
**A.** Its value is 117 mmHg.

**Q.** What about the “Effect on mouse blood pressure” value ([1]; 250 mg/kg IP, systolic, diastolic or mean) of the same compound?
**A.** The value was “minimal effect”.

**Q.** And the “Effect on mouse blood pressure” value ([1]; 325 mg/kg IP)?
**A.** Its value is “larger transient change”.

**Q.** And the “Concentration in the tumor, molar equivalent” value ([2]; Renca-luc tumor, from 15 ng/mg)?
**A.** Its value is 32 µM.

**Q.** And the “Concentration in the tumor” value ([2]; Renca-luc tumor, maximum)?
**A.** Its value is 15 ng/mg.

**Q.** And the AUC ([2]; brain, after OXi8007 250 mg/kg IP)?
**A.** The AUC was 0.11 ng·h/mg.

**Q.** What about the AUC ([2]; heart, after OXi8007 250 mg/kg IP) of the same compound?
**A.** The AUC was 1.32 ng·h/mg.

**Q.** What about the AUC ([2]; left kidney, after OXi8007 250 mg/kg IP) of the same compound?
**A.** Its AUC is 2.05 ng·h/mg.

**Q.** And the AUC ([2]; liver, after OXi8007 250 mg/kg IP)?
**A.** The AUC was 12.67 ng·h/mg.

**Q.** And the AUC ([2]; lungs, after OXi8007 250 mg/kg IP)?
**A.** The AUC was 2.3 ng·h/mg.

**Q.** What about the concentration at 4 h ([2]; male, BALB/c, mouse, in vivo, 250 mg/kg, plasma, within 4 h after OXi8007 IP) of the same compound?
**A.** Its concentration at 4 h is 10 µg/mL.

**Q.** And the Tmax ([2]; male, BALB/c, mouse, in vivo, 250 mg/kg, Renca-luc tumors, IP administration, read-out: Time to maximum concentration in tumors)?
**A.** The Tmax was at most 60 min.

**Q.** What about the half-life [2, 4] of the same compound?
**A.** Its half-life is 30.6 min.

**Q.** What about the Cmax [2, 4] of the same compound?
**A.** Its Cmax is 70 ng/g.

**Q.** What about the Tmax ([2]; male, BALB/c, mouse, in vivo, 250 mg/kg, brain, after OXi8007 250 mg/kg IP, read-out: Tmax (converted)) of the same compound?
**A.** Its Tmax is 60 min.

**Q.** What about the half-life [2, 5] of the same compound?
**A.** Its half-life is 36.6 min.

**Q.** What about the Cmax [2, 5] of the same compound?
**A.** Its Cmax is 1620 ng/g.

**Q.** And the Tmax ([2]; male, BALB/c, mouse, in vivo, 250 mg/kg, heart, after OXi8007 250 mg/kg IP, read-out: Tmax (converted))?
**A.** The Tmax was 20 min.

**Q.** And the half-life [2, 6]?
**A.** Its half-life is 70.8 min.

**Q.** And the Cmax [2, 6]?
**A.** Its Cmax is 1400 ng/g.

**Q.** What about the Tmax ([2]; male, BALB/c, mouse, in vivo, 250 mg/kg, left kidney, after OXi8007 250 mg/kg IP, read-out: Tmax (converted)) of the same compound?
**A.** The Tmax was 20 min.

**Q.** And the half-life [2, 7]?
**A.** Its half-life is 66 min.

**Q.** What about the Cmax [2, 7] of the same compound?
**A.** Its Cmax is 13400 ng/g.

**Q.** And the Tmax ([2]; male, BALB/c, mouse, in vivo, 250 mg/kg, liver, after OXi8007 250 mg/kg IP, read-out: Tmax (converted))?
**A.** The Tmax was 20 min.

**Q.** And the half-life [2, 8]?
**A.** Its half-life is 42 min.

**Q.** What about the Cmax [2, 8] of the same compound?
**A.** The Cmax was 1610 ng/g.

**Q.** What about the Tmax ([2]; male, BALB/c, mouse, in vivo, 250 mg/kg, lungs, after OXi8007 250 mg/kg IP, read-out: Tmax (converted)) of the same compound?
**A.** Its Tmax is 20 min.

**Q.** What about the half-life [2, 9] of the same compound?
**A.** Its half-life is 49 min.

**Q.** What about the half-life ([2]; male, BALB/c, mouse, in vivo, 250 mg/kg, plasma, after OXi8007 250 mg/kg IP, Renca-luc tumor-bearing BALB/c mice) of the same compound?
**A.** The half-life was 49.2 min.

**Q.** And the Cmax [2, 9]?
**A.** The Cmax was 453 µg/mL.

**Q.** And the Tmax ([2]; male, BALB/c, mouse, in vivo, 250 mg/kg, plasma, after OXi8007 250 mg/kg IP, read-out: Tmax (converted))?
**A.** Its Tmax is 20 min.

**Q.** And the half-life [2, 10]?
**A.** The half-life was 39 min.

**Q.** And the Cmax [2, 10]?
**A.** The Cmax was 990 ng/g.

**Q.** What about the Tmax ([2]; male, BALB/c, mouse, in vivo, 250 mg/kg, spleen, after OXi8007 250 mg/kg IP, read-out: Tmax (converted)) of the same compound?
**A.** Its Tmax is 60 min.

**Q.** And the half-life [2, 11]?
**A.** The half-life was 120 min.

**Q.** And the Cmax [2, 11]?
**A.** The Cmax was 15000 ng/g.

**Q.** What about the Tmax ([2]; male, BALB/c, mouse, in vivo, 250 mg/kg, tumor and right kidney, after OXi8007 250 mg/kg IP, read-out: Tmax (converted)) of the same compound?
**A.** The Tmax was 60 min.

**Q.** And the Plasma concentration ([2]; plasma, maximum, after OXi8007 IP)?
**A.** Its Plasma concentration is “about 450 µg/mL”.

**Q.** And the AUC ([2]; plasma, after OXi8007 250 mg/kg IP, zero to last quantifiable concentration)?
**A.** Its AUC is 511 ^# h × ng/µL.

**Q.** What about the AUC ([2]; spleen, after OXi8007 250 mg/kg IP) of the same compound?
**A.** The AUC was 1.41 ng·h/mg.

**Q.** What about the AUC ([2]; tumor and right kidney, after OXi8007 250 mg/kg IP) of the same compound?
**A.** The AUC was 36.31 ng·h/mg.

**Q.** And the “Tumor vascular oxygenation (MSOT)” value [3]?
**A.** Its value is “less well oxygenated and less responsive to the oxygen gas breathing challenge”.

**Q.** And the Wound closure (Renca cells)?
**A.** Its Wound closure is “significantly depressed”.
